From patent publication US5614625A, “Hydroxamic acid derivatives with tricyclic substitution” (Hoffmann-La Roche Inc., priority 1994, dated 1997)

Molecular target: T1, collagenase obtained from a culture of human synovial fibroblasts (Homo sapiens, UniProt P03956)
T1 construct: endogenous in cells; host or cells: human synovial fibroblast culture (conditioned medium)
T1 sequence (P03956 100-469): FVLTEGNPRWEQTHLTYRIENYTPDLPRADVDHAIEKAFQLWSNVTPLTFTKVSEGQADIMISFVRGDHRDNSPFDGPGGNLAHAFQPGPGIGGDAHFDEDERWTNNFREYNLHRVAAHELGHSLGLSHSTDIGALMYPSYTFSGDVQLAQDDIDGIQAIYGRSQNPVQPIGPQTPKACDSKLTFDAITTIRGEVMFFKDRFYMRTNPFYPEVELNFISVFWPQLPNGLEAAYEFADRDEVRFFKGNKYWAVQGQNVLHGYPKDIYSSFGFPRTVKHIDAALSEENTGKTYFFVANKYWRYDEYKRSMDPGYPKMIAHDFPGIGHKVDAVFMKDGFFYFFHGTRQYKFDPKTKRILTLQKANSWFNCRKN
Assay: in vitro collagenase inhibiting activity, microtitre plate assay with 14C-acetylated collagen type I from rat tail tendons as substrate
Assay type: biochemical
Settings: trypsin-activated pro-collagenase; 14C-acetylated collagen type I substrate; concentration reducing substrate cleavage and solubilization to 50%

Row | IC50 | SMILES
1 | 18 nM | CN1C(=O)N(CC(C(=O)NO)[C@@H](CC2CC2)C(=O)N2CCC(O)CC2)C(=O)C1(C)C (single isomer, unassigned) [Example 2, 1-[3-cyclopropyl-2-(R)-[1(R or S)-(hydroxycarbamoyl)-2-(3,4,4-trimethyl-2,5-dioxo-1-imidazolidinyl)ethyl]propionyl]-4-piperidinol]
2 | 7 nM | CN1C(=O)N(CC(C(=O)NO)[C@@H](CC2CCC2)C(=O)N2CCCCC2)C(=O)C1(C)C (single isomer, unassigned) [Example 4, 1-[3-cyclobutyl-2(R)-[1(R or S)-(hydroxycarbamoyl)-2-(3,4,4-trimethyl-2,5-dioxo-1-imidazolidinyl)ethyl]propionyl]piperidine]
3 | 2.5 nM | CN1C(=O)N(CC(C(=O)NO)[C@@H](CC2CCC2)C(=O)N2CCC(O)CC2)C(=O)C1(C)C (single isomer, unassigned) [Example 5, 1-[3-cyclobutyl-2(R)-[1(R or S)-(hydroxycarbamoyl)-2-(3,4,4-trimethyl-2,5-dioxo-1-imidazolidinyl)ethyl]propionyl]-4-piperidinol]
4 | 6.5 nM | CN1C(=O)N(CC(C(=O)NO)[C@@H](CC2CCCC2)C(=O)N2CCC(O)CC2)C(=O)C1(C)C (single isomer, unassigned) [Example 7, 1-[3-cyclopentyl-2[(R)-[1(R or S)-(hydroxycarbamoyl)-2-(3,4,4-trimethyl-2,5-dioxo-1imidazolidinyl)ethyl]propionyl]-4-piperidinol]
5 | 4.1 nM | CN1C(=O)N(CC(C(=O)NO)[C@@H](CC2CCCC2)C(=O)N2CCOCC2)C(=O)C1(C)C (single isomer, unassigned) [Example 16, 4-[3-cyclopentyl-2(R)-[1(R or S)-(hydroxycarbamoyl)-2-(3,4,4-trimethyl-2,5-dioxo-1-imidazolidinyl)ethyl]propionyl]morpholine]
6 | 2.35 nM | CNC(=O)[C@H]1N(C(=O)[C@H](CC2CCCC2)C(CN2C(=O)N(C)C(C)(C)C2=O)C(=O)NO)CSC1(C)C (single isomer, unassigned) [Example 17, 3-[3-cyclopentyl-2(R)-[1(R or S)-(hydroxycarbamoyl)-2-(3,4,4-trimethyl-2,5-dioxo-1imidazolidinyl)ethyl]propionyl]-N,5,5-trimethyl-4(R)-thiazolidinecarboxamide]
7 | 34 nM | CN1C(=O)N(CC(C(=O)NO)[C@@H](CC2CCC2)C(=O)N2CCCCCCC2)C(=O)C1(C)C (single isomer, unassigned) [Example 23, 1-[3-cyclobutyl-2(R)-[1(R or S)-(hydroxycarbamoyl)-2-(3,4,4-trimethyl-2,5-dioxo-1-imidazolidinyl)ethyl]propionyl]octahydroazocine]
